Here are results for one compound from patent publication US20230321067A1, “DOSING REGIMEN COMPRISING 3-(1-OXOISOINDOLIN-2-YL)PIPERIDINE-2,6-DIONE DERIVATIVES” (Novartis AG, priority 2020, published 2023).

Data set [1] concerns Treg cells. Briefly: Suppressive potency of Treg cells expanded in the presence of compound (FIG. 2C). It is filed as cell-based. An excerpt: FIG. 2C is a bar graph showing the suppressive potency of Treg cells expanded in the presence of Compound I-57.
The subject of data set [2] is IKZF2. Briefly: Degradation of IKZF2 in primary PBMCs, cynomolgus monkey (FIG. 3). It is filed as cell-based. The text has this:
(§1) FIG. 3. is a bar graph showing the degradation of IKZF2 in primary PBMCs obtained from rabbit, dog, pig, cynomolgus monkey and human, and in primary splenocytes of mouse and rat and treated with Compound I-57.

For data set [3], the target named is T1, IKZF1 (Ikaros) (Homo sapiens, UniProt Q13422).
T1 construct: ProLabel; expressed in transfected cells; host or cells: HEK293T
T1 sequence (Q96SW2 whole entry partner): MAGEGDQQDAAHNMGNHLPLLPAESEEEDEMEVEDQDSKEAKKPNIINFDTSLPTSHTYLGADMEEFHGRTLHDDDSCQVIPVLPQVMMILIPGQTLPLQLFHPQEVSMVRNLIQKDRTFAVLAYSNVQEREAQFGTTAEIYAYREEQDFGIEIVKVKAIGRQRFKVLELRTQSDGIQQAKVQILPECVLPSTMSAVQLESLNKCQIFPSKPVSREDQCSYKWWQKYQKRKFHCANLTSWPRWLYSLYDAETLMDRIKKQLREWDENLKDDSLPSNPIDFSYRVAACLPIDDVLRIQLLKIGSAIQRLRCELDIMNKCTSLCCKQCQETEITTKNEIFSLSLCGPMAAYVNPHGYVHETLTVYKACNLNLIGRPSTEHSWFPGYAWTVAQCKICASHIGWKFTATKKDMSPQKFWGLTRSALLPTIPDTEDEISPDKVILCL
T1 sequence (Q16531 whole entry partner): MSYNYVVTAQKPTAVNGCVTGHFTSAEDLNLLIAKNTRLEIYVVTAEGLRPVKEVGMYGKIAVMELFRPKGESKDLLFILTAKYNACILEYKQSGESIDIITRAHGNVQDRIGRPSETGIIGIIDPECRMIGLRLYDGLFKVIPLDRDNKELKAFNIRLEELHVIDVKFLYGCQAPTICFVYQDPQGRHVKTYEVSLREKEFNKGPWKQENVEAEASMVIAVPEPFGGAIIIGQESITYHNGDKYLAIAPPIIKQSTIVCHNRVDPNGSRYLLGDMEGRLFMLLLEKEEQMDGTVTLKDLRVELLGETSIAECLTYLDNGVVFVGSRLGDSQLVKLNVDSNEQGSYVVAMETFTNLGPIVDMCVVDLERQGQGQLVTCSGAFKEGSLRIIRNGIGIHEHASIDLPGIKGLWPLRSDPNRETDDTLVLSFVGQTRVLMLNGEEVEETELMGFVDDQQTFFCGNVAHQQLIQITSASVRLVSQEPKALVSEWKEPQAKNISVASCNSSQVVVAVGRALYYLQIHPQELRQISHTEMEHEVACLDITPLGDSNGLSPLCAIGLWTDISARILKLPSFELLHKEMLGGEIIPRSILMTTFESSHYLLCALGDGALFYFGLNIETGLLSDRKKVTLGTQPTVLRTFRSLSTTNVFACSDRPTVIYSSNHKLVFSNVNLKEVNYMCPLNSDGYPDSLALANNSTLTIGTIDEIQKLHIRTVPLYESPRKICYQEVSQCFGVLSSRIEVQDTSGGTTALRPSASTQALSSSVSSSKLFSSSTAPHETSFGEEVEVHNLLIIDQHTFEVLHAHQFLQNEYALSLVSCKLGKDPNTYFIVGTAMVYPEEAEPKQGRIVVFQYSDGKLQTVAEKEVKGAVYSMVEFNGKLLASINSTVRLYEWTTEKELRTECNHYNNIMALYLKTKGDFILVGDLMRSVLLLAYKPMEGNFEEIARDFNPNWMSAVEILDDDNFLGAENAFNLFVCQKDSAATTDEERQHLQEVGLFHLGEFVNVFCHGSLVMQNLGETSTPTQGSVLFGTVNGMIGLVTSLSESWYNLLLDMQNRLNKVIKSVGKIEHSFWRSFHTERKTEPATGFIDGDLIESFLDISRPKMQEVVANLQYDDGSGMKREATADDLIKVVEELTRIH
T1 sequence (Q13422 whole entry): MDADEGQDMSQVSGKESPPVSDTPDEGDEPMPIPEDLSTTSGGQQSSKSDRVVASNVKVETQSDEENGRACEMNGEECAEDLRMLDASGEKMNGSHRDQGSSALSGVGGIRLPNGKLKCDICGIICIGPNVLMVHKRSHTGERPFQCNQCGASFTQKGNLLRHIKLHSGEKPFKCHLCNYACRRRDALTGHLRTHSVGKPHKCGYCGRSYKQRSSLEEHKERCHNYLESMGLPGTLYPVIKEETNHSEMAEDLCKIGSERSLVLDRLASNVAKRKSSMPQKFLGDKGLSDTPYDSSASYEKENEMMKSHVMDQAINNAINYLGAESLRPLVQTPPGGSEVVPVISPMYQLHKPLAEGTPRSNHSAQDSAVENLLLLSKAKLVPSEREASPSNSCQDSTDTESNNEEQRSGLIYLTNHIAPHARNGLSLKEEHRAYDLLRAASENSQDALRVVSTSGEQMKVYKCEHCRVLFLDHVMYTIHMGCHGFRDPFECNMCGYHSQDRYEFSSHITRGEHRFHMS
Put plainly: IKZF1 degradation in vitro (FIG. 1). Format: cell-based. The text has this:
(§2) Although the specific transcriptional targets of IKZF2 remain to be defined, IKZF2 binds to and represses transcription from the IL-2 promoter region (Baine 2013). […] Finally, an in vitro assay recapitulating hallmarks of T cell dysfunction/exhaustion, by sequential TCR stimulation of isolated primary human T cells, was used to test the hypothesis that […] would rescue the exhausted phenotype and enhance Teff cell activity. […] In addition to IKZF1, other known cereblon substrates including translation termination factor G1 to S phase transition 1 (GSPT1) are not degraded by I-57 (FIG. 1).

In data set [4] the test system is IL-2 mRNA and soluble protein in Jurkat cells. Briefly: IL-2 expression in TCR-stimulated Jurkat cells. The following applies: Homo sapiens; Jurkat cells upon TCR stimulation. It is filed as cell-based.
From the text: as §2

Data set [5] has as its system peripheral T cells. Briefly: Immunization response (KLH/Squalene) in cynomolgus monkey: anti-KLH IG and Ki67 T cells. Format: in vivo. Here is the method: The PK/PD relationship of I-57 was further examined in cynomolgus monkeys after repeated daily oral doses of 0.1 and 3 mg/kg. In this study, a cohort of animals were initially immunized with an antigen-adjuvant mixture (KLH/Squalene). The experiment was designed to assess the effect of I-57 exposure, and the resulting IKZF2 degradation, on immune response during immunization to test the hypothesis that IKZF2 degradation would result in increased proliferation of stimulated T-cells. In the experiment, daily I-57 oral treatment was initiated 5 days after immunization. An immunization booster dose was administered on day 15. I-57 plasma concentration and IKZF2 expression (as determined by flow cytometry) in FOXP3+ T cells from PBMCs were determined (FIG. 9A and FIG. 9B).
In order to measure the impact of I-57 treatment on the immune response following immunization, serum anti-KLH IG levels were measured longitudinally, and levels of T cell activation were measured in PBMCs by flow cytometry. […] In contrast, the proportion of proliferative peripheral T cells (denoted by Ki67 staining) was increased in the highest dose group (3 mg/kg) in the recall response phase, compared to immunization alone.

Data set [6] can be described thus: In vivo non-clinical PK, monkey. Details: species or system cynomolgus monkey. The method, then: The in vivo non-clinical PK profile of I-57 was investigated in mouse, rat, dog and cynomolgus monkey using I-57 free base. […] After p.o. administration, the absorption of I-57 was rapid with peak blood concentration (Tmax) occurring between 1 and 4 hours. […] In high dose PK and toxicology studies with I-57 the exposures in mouse, rat and monkey increased with dose.

Data set [7] concerns plasma protein. Put plainly: Plasma protein binding in vitro, dog. It is filed as in vitro ADME. An excerpt: (§3) The binding to plasma protein of I-57 in vitro was moderate in all species, with an observed difference between rodents (73% in mouse, 76% in rat) and non-rodents (52% in dog and monkey, 54% in human). Blood-to-plasma ratios were in the range of 0.7-1.8 (human 1.1-1.3). […] Based on results with non-radiolabeled I-57 in the dog, a significant amount of unchanged I-57 was renally eliminated (˜20% of dose).

In data set [8] the test system is plasma protein. Put plainly: Plasma protein binding in vitro, monkey. It is filed as in vitro ADME.
From the text: as §3

In data set [9] the test system is plasma protein. Put plainly: Plasma protein binding in vitro, human. Format: in vitro ADME.
From the text: as §3

Data set [10] can be described thus: Blood-to-plasma ratio, across species. It is filed as in vitro ADME.
From the text: as §3

A short description of data set [11]: Blood-to-plasma ratio, human. It is filed as in vitro ADME.
From the text: as §3

Data set [12] deals with CYP2A6 (Homo sapiens, UniProt P11509). Put plainly: CYP inhibition: CYP2A6. The following applies: I-57 concentrations of up to 100 μM. Format: in vitro ADME.
Chain of CYP2A6 (P11509 whole entry): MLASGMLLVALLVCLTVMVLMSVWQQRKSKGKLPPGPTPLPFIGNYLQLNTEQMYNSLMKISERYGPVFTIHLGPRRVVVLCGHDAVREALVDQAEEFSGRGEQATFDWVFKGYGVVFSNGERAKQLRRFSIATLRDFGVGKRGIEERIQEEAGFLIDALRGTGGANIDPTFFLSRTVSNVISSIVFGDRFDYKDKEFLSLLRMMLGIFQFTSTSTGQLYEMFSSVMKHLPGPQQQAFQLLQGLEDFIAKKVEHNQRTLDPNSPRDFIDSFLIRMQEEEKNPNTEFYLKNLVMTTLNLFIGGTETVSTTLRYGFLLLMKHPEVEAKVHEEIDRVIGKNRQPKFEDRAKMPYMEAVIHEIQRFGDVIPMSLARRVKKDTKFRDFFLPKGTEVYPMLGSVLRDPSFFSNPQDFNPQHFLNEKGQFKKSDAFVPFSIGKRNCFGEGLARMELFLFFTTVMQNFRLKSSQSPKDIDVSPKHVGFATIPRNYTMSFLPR
The target in data set [13] is CYP2C19 (Homo sapiens, UniProt P33261). Briefly: CYP inhibition: CYP2C19. The following applies: I-57 concentrations of up to 100 μM. Format: in vitro ADME.
Chain of CYP2C19 (P33261 whole entry): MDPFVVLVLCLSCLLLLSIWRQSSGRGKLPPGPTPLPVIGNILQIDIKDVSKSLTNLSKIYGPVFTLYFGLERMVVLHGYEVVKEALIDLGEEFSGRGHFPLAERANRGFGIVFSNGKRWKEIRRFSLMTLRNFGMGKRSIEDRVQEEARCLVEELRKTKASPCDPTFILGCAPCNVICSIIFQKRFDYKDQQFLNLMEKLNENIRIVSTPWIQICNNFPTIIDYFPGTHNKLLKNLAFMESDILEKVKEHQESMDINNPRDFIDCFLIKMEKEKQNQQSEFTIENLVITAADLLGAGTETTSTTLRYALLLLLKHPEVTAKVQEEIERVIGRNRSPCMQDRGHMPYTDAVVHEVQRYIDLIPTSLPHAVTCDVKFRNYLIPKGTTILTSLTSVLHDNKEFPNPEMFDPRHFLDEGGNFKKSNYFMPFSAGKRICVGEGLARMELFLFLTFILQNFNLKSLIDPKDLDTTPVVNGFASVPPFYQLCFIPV
Data set [14] concerns CYP3A. Briefly: CYP inhibition: CYP3A. As to conditions: I-57 concentrations of up to 100 μM. Format: in vitro ADME.
Data set [15] has as its target CYP2D6 (Homo sapiens, UniProt P10635). Briefly: Time-dependent CYP inhibition: CYP2D6. It is filed as in vitro ADME. As to conditions: I-57 concentrations of up to 100 μM.
Data set [16] concerns the target hERG (Homo sapiens, UniProt Q12809). Put plainly: In vitro hERG inhibition. Format: biochemical. The method, then: The risk of possible QTc interval prolongation at the starting dose is therefore considered low. QT prolongation may become clinically significant during escalation but are not anticipated to be dose limiting until doses at or above 640 mg. Monitoring and other measures to mitigate potential risk of arrhythmia is addressed in Example 3 below.
(hERG is a cardiac potassium channel; its block is linked to QT prolongation.)

Data set [17] can be described thus: Genotoxic potential.
Data set [18] in a line: Phototoxic potential.
The target in data set [19] is T2, IKZF2 (Homo sapiens, UniProt Q96SW2+Q9UKS7). Put plainly: Degradation of IKZF2 in primary PBMCs, human (FIG. 3). It is filed as cell-based. Details: endogenous in cells; host or cells: primary human PBMCs.
T2 sequence (Q9UKS7 whole entry): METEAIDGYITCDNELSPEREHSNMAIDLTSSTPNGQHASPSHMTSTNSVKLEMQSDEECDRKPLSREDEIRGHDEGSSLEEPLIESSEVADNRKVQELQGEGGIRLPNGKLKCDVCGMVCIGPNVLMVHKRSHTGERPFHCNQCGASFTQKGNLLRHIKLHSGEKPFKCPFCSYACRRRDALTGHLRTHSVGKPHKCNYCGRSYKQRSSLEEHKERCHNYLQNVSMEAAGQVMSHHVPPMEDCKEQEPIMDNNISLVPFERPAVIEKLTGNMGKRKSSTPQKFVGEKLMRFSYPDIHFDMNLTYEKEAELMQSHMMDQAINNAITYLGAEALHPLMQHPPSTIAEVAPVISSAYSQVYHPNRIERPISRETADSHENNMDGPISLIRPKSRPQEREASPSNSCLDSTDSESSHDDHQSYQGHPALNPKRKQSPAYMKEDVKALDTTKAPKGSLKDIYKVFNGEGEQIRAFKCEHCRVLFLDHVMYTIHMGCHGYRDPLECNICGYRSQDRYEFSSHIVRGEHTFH
T2 sequence (Q96SW2 whole entry): as the sequence (Q96SW2 whole entry partner) above
T2 sequence (Q16531 whole entry partner): as the sequence (Q16531 whole entry partner) above
From the text: as §1

Data set [20] has as its target T2, IKZF2. Briefly: IKZF2 degradation in primary human PBMCs. It is filed as cell-based. Details: endogenous in cells; host or cells: primary human PBMCs.
From the text: as §2
I-57 mediated degradation of IKZF2 was assessed in primary PBMCs obtained from rabbit, dog, pig, cynomolgus monkey, and human, and in primary splenocytes of mouse and rat. […] Species-specificity due to species specific alteration CRBN primary structure have previously been described with other compounds known to interact with the CRBN ubiquitin ligase complex to elicit protein specific degradation (Krönke et al, 2015).

Where “and” joins values, the source holds several entries; their conditions need not be identical. Equal entries are not always repeated. Entries after “also recorded” stand apart in the source; their conditions may differ.

Chain of CYP2D6 (P10635 whole entry): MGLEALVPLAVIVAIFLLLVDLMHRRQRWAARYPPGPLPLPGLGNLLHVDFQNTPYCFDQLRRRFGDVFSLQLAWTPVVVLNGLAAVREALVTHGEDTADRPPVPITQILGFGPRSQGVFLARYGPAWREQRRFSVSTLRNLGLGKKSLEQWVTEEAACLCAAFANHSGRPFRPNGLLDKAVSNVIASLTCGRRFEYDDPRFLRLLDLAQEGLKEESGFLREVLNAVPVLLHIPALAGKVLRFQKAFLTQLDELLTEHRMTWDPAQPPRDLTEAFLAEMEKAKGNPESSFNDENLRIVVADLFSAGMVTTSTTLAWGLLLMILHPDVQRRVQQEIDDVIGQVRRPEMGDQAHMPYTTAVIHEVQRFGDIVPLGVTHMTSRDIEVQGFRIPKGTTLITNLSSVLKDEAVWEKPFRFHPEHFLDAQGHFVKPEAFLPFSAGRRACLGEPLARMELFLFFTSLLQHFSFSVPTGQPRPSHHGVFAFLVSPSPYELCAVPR

In general, AC50 refers to the concentration at which the activity in the assay is half-maximal. As usually defined, the bioavailability is dose-corrected exposure relative to a reference, in per cent. The term IC50 denotes the concentration needed to halve the response being measured. Turning to `O=C1CCC(N2Cc3cc(C4CCN(Cc5ccccc5)CC4)ccc3C2=O)C(=O)N1` (stereo not drawn) [Compound I-57, 3-(5-(1-benzylpiperidin-4-yl)-1-oxoisoindolin-2-yl)piperidine-2,6-dione], the “capacity of Treg cells to suppress Teff proliferation” value in data set [1] was “reduced capacity to suppress Teff proliferation”. Besides, the “degradation of IKZF2” value in [2] is “degradation was observed”; in [19], “degradation was observed”; in data set [20] (primary human PBMCs in vitro), “potent degradation; also recorded: Degradation was observed”. Further, the “degradation of IKZF1” value in data set [3] is “not degraded”. In addition, the AC50 in data set [4] is ~4 nM and ~0.0017 µg/mL. The “proportion of proliferative peripheral T cells (Ki67 staining)” value in [5] (3 mg/kg, recall response phase, compared to immunization alone) was “increased”. In addition, the “Anti-IgG titers elicited by the immunization (serum anti-KLH IG)” value in data set [5] (KLH/Squalene immunization, daily I-57) is “not further enhanced”. For the same compound, the “dose proportionality of AUC” value was “less than dose proportional” in data set [6] (above 100 mg/kg); “slightly over-proportional” in data set [6] (between 10 mg/kg and 100 mg/kg). Further, the bioavailability in data set [6] (cynomolgus monkey, blood, po) amounted to 89%. The “binding to plasma protein” value in data set [7] came out at 52%; in data set [8], 52%; in data set [9], 54%. The blood plasma ratio was in the range of 0.7 to 1.8 in data set [10] and 1.1 to 1.3 in data set [11]. For the same compound, the “inhibition of CYP2A6” value in data set [12] is “very little and no inhibition”. The “inhibition of CYP2C19” value in [13] is “very little and no inhibition”. The “inhibition of CYP3A” value in data set [14] was “very little and no inhibition”. Further, the “time-dependent inhibition of CYP2D6” value in data set [15] is on record as “no apparent time-dependent inhibition”. In [16], this compound yielded an IC50 of 7.1 µM. Moreover, the genotoxic potential result in [17] is “no genotoxic or phototoxic potential”. The phototoxic potential entry in data set [18] is listed as “no genotoxic or phototoxic potential”. The DC50 in data set [20] (human PBMC, read-out: AC50 for IKZF2 degradation (converted)) was ~4 nM and ~4.07 nM.
